Experimental data reported in publication PMC8126183, “Three LysM effectors of Zymoseptoria tritici collectively disarm chitin‐triggered plant immunity” (Molecular Plant Pathology, 2021).

Columns and labels:
Mg1LysM = target: T1, Mg1LysM (Zymoseptoria tritici, UniProt F9XHX3); assay: ligand-induced polymerization, centrifugation pellet with methylene blue; format: binding; conditions: 200 µM protein stock mixed 1:1 with 2 mM chitohexaose; room temperature overnight; positive control
T1 construct: E. coli-produced; single LysM; borders and tag not described; ligand-independent homodimer
T1 sequence (F9XHX3 19-97): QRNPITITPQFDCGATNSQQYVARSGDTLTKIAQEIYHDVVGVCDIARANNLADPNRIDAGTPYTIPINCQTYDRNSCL

Mgx1LysM = target: T2, Mgx1LysM (Zymoseptoria tritici, UniProt P9WEM2); assay: as above; format: binding; conditions: 200 µM protein stock mixed 1:1 with 2 mM chitohexaose; room temperature overnight
T2 construct: mature protein, signal peptide removed; E. coli Origami, pETSUMO; 6xHis-SUMO tag cleaved with ULP1; single LysM
T2 sequence (P9WEM2 19-103): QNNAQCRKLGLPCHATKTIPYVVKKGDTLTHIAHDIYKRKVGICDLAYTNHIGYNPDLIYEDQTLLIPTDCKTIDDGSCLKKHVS

Compound: CC(=O)N[C@H]1[C@H](O[C@H]2[C@H](O)[C@@H](NC(C)=O)[C@H](O[C@H]3[C@H](O)[C@@H](NC(C)=O)C(O)O[C@@H]3CO)O[C@@H]2CO)O[C@H](CO)[C@@H](O[C@@H]2O[C@H](CO)[C@@H](O[C@@H]3O[C@H](CO)[C@@H](O[C@@H]4O[C@H](CO)[C@@H](O)[C@H](O)[C@H]4NC(C)=O)[C@H](O)[C@H]3NC(C)=O)[C@H](O)[C@H]2NC(C)=O)[C@@H]1O (some centres unmarked) [chitohexaose]
- ligand-induced polymerization, centrifugation pellet with methylene blue (Mg1LysM): protein pellets (red arrowheads) as a consequence of polymerization for Mgx1LysM, Mg1LysM, and RiSLM
- ligand-induced polymerization, centrifugation pellet with methylene blue (Mgx1LysM): a clear Mgx1LysM pellet emerged upon incubation with chitin, and not in the absence
